Assay results taken from ChEMBL document CHEMBL5252552, “Defined concatenated α6α1β3γ2 GABAA receptor constructs reveal dual action of pyrazoloquinolinone allosteric modulators” (Bioorg Med Chem, 2019).

Assays:
[1] = molecular target: T1, Gamma-aminobutyric acid receptor subunit alpha-6/beta-3/gamma-2 (Rattus norvegicus) (UniProt P18508+P30191+P63079); assay: Positive allosteric modulation of rat recombinant GABAA alpha6beta3alpha6-gamma2beta3 receptor expressed in Xenopus laevis oocytes assessed as maximal current at -80 mV holding potential in presence of GABA EC1 to 1.5 by two-electrode voltage-clamp assay relative to control; assay type: cell-based; details: Oocyte, filed as positive allosteric modulator
[2] = molecular target: T1, Gamma-aminobutyric acid receptor subunit alpha-6/beta-3/gamma-2 (Rattus norvegicus); assay: Positive allosteric modulation of rat recombinant GABAA alpha6beta3alpha6-gamma2beta3 receptor expressed in Xenopus laevis oocytes assessed as maximal efficacy at -80 mV holding potential at 300 nM in presence of GABA EC1 to 1.5 by two-electrode voltage-clamp assay; assay type: cell-based; details: Oocyte, filed as positive allosteric modulator
[3] = molecular target: T1, Gamma-aminobutyric acid receptor subunit alpha-6/beta-3/gamma-2 (Rattus norvegicus); assay: Positive allosteric modulation of rat recombinant GABAA alpha6beta3alpha6-gamma2beta3 receptor expressed in Xenopus laevis oocytes assessed as maximal efficacy at -80 mV holding potential at 1 nM in presence of GABA EC1 to 1.5 by two-electrode voltage-clamp assay; assay type: cell-based; details: Oocyte
[4] = molecular target: T2, Gamma-aminobutyric acid receptor subunit alpha-6/beta-3/gamma-2 (Rattus norvegicus, UniProt P18508+P30191+P63079); assay: Positive allosteric modulation of rat recombinant GABAA alpha6beta3alpha6-gamma2beta3 receptor expressed in Xenopus laevis oocytes assessed as increase in GABA-induced current amplitude at -80 mV holding potential in presence of GABA EC1 to 1.5 by two-electrode voltage-clamp assay; assay type: cell-based, Oocyte
[5] = molecular target: T1, Gamma-aminobutyric acid receptor subunit alpha-6/beta-3/gamma-2 (Rattus norvegicus); assay: Positive allosteric modulation of rat recombinant GABAA alpha6beta3alpha6-gamma2beta3 receptor expressed in Xenopus laevis oocytes assessed as maximal efficacy at -80 mV holding potential at 10 uM in presence of GABA EC1 to 1.5 by two-electrode voltage-clamp assay; assay type: cell-based; details: Oocyte, filed as positive allosteric modulator
[6] = molecular target: T1, Gamma-aminobutyric acid receptor subunit alpha-6/beta-3/gamma-2 (Rattus norvegicus); assay: Positive allosteric modulation of rat recombinant GABAA alpha6beta3alpha6-gamma2beta3 receptor expressed in Xenopus laevis oocytes assessed as maximal efficacy at -80 mV holding potential at 3 uM in presence of GABA EC1 to 1.5 by two-electrode voltage-clamp assay; assay type: cell-based; details: Oocyte, filed as positive allosteric modulator
[7] = molecular target: T1, Gamma-aminobutyric acid receptor subunit alpha-6/beta-3/gamma-2 (Rattus norvegicus); assay: Positive allosteric modulation of rat recombinant GABAA alpha6beta3alpha6-gamma2beta3 receptor expressed in Xenopus laevis oocytes assessed as maximal efficacy at -80 mV holding potential at 10 nM in presence of GABA EC1 to 1.5 by two-electrode voltage-clamp assay; assay type: cell-based; details: Oocyte
[8] = molecular target: T1, Gamma-aminobutyric acid receptor subunit alpha-6/beta-3/gamma-2 (Rattus norvegicus); assay: Positive allosteric modulation of rat recombinant GABAA alpha6beta3alpha6-gamma2beta3 receptor expressed in Xenopus laevis oocytes assessed as maximal efficacy at -80 mV holding potential at 30 nM in presence of GABA EC1 to 1.5 by two-electrode voltage-clamp assay; assay type: cell-based; details: Oocyte
[9] = molecular target: T1, Gamma-aminobutyric acid receptor subunit alpha-6/beta-3/gamma-2 (Rattus norvegicus); assay: Positive allosteric modulation of rat recombinant GABAA alpha6beta3alpha6-gamma2beta3 receptor expressed in Xenopus laevis oocytes assessed as maximal efficacy at -80 mV holding potential at 1 uM in presence of GABA EC1 to 1.5 by two-electrode voltage-clamp assay; assay type: cell-based; details: Oocyte, filed as positive allosteric modulator
[10] = molecular target: T1, Gamma-aminobutyric acid receptor subunit alpha-6/beta-3/gamma-2 (Rattus norvegicus); assay: Positive allosteric modulation of rat recombinant GABAA alpha6beta3alpha6-gamma2beta3 receptor expressed in Xenopus laevis oocytes assessed as maximal efficacy at -80 mV holding potential at 30 uM in presence of GABA EC1 to 1.5 by two-electrode voltage-clamp assay; assay type: cell-based; details: Oocyte, filed as positive allosteric modulator
[11] = molecular target: T1, Gamma-aminobutyric acid receptor subunit alpha-6/beta-3/gamma-2 (Rattus norvegicus); assay: Positive allosteric modulation of rat recombinant GABAA alpha6beta3alpha6-gamma2beta3 receptor expressed in Xenopus laevis oocytes assessed as maximal efficacy at -80 mV holding potential at 100 nM in presence of GABA EC1 to 1.5 by two-electrode voltage-clamp assay; assay type: cell-based; details: Oocyte, filed as positive allosteric modulator
[12] = molecular target: T1, Gamma-aminobutyric acid receptor subunit alpha-6/beta-3/gamma-2 (Rattus norvegicus); assay: Positive allosteric modulation of rat recombinant GABAA alpha6beta3alpha6-gamma2beta3 receptor expressed in Xenopus laevis oocytes assessed as maximal efficacy at -80 mV holding potential at 3 nM in presence of GABA EC1 to 1.5 by two-electrode voltage-clamp assay; assay type: cell-based; details: Oocyte
[13] = molecular target: T3, Gamma-aminobutyric acid receptor subunit alpha-1/beta-3/gamma-2 (Rattus norvegicus) (UniProt P18508+P62813+P63079); assay: Positive allosteric modulation of rat recombinant GABAA alpha1beta3alpha1-gamma2beta3 receptor expressed in Xenopus laevis oocytes assessed as maximal efficacy at -80 mV holding potential at 300 nM in presence of GABA EC1 to 1.5 by two-electrode voltage-clamp assay; assay type: cell-based; details: Oocyte
[14] = molecular target: T3, Gamma-aminobutyric acid receptor subunit alpha-1/beta-3/gamma-2 (Rattus norvegicus); assay: Positive allosteric modulation of rat recombinant GABAA alpha1beta3alpha1-gamma2beta3 receptor expressed in Xenopus laevis oocytes assessed as maximal efficacy at -80 mV holding potential at 30 uM in presence of GABA EC1 to 1.5 by two-electrode voltage-clamp assay; assay type: cell-based; details: Oocyte, filed as positive allosteric modulator
[15] = molecular target: T2, Gamma-aminobutyric acid receptor subunit alpha-6/beta-3/gamma-2; assay: Positive allosteric modulation of rat recombinant GABAA alpha6beta3alpha6-gamma2beta3 receptor expressed in Xenopus laevis oocytes assessed as increase in GABA-induced current amplitude at -80 mV holding potential under less potent phase in presence of GABA EC1 to 1.5 by two-electrode voltage-clamp assay; assay type: cell-based, Oocyte
[16] = molecular target: T1, Gamma-aminobutyric acid receptor subunit alpha-6/beta-3/gamma-2 (Rattus norvegicus); assay: Positive allosteric modulation of rat recombinant GABAA alpha6beta3alpha6-gamma2beta3 receptor expressed in Xenopus laevis oocytes assessed as maximal current under less potent phase in presence of GABA EC1 to 1.5 by two-electrode voltage-clamp assay relative to control; assay type: cell-based; details: Oocyte, filed as positive allosteric modulator
[17] = molecular target: T3, Gamma-aminobutyric acid receptor subunit alpha-1/beta-3/gamma-2 (Rattus norvegicus); assay: Positive allosteric modulation of rat recombinant GABAA alpha1beta3alpha1-gamma2beta3 receptor expressed in Xenopus laevis oocytes assessed as maximal efficacy at -80 mV holding potential at 30 nM in presence of GABA EC1 to 1.5 by two-electrode voltage-clamp assay; assay type: cell-based; details: Oocyte
[18] = molecular target: T4, Gamma-aminobutyric acid receptor subunit alpha-1/alpha-6/beta-3/gamma-2 (Rattus norvegicus) (UniProt P18508+P30191+P62813+P63079); assay: Positive allosteric modulation of rat recombinant GABAA alpha6beta3alpha1-gamma2beta3 receptor expressed in Xenopus laevis oocytes assessed as maximal efficacy at -80 mV holding potential at 30 uM in presence of GABA EC1 to 1.5 by two-electrode voltage-clamp assay; assay type: cell-based; details: Oocyte, filed as positive allosteric modulator
[19] = molecular target: T2, Gamma-aminobutyric acid receptor subunit alpha-6/beta-3/gamma-2; assay: Positive allosteric modulation of rat recombinant GABAA alpha6beta3alpha6-gamma2beta3 receptor expressed in Xenopus laevis oocytes assessed as increase in GABA-induced current amplitude at -80 mV holding potential under more potent phase in presence of GABA EC1 to 1.5 by two-electrode voltage-clamp assay; assay type: cell-based, Oocyte
[20] = molecular target: T3, Gamma-aminobutyric acid receptor subunit alpha-1/beta-3/gamma-2 (Rattus norvegicus); assay: Positive allosteric modulation of rat recombinant GABAA alpha1beta3alpha1-gamma2beta3 receptor expressed in Xenopus laevis oocytes assessed as maximal efficacy at -80 mV holding potential at 100 nM in presence of GABA EC1 to 1.5 by two-electrode voltage-clamp assay; assay type: cell-based; details: Oocyte
[21] = molecular target: T4, Gamma-aminobutyric acid receptor subunit alpha-1/alpha-6/beta-3/gamma-2 (Rattus norvegicus); assay: Positive allosteric modulation of rat recombinant GABAA alpha6beta3alpha1-gamma2beta3 receptor expressed in Xenopus laevis oocytes assessed as maximal efficacy at -80 mV holding potential at 300 nM in presence of GABA EC1 to 1.5 by two-electrode voltage-clamp assay; assay type: cell-based; details: Oocyte
[22] = molecular target: T1, Gamma-aminobutyric acid receptor subunit alpha-6/beta-3/gamma-2 (Rattus norvegicus); assay: Positive allosteric modulation of rat recombinant GABAA alpha6beta3alpha6-gamma2beta3 receptor expressed in Xenopus laevis oocytes assessed as maximal current at -80 mV holding potential under more potent phase in presence of GABA EC1 to 1.5 by two-electrode voltage-clamp assay relative to control; assay type: cell-based; details: Oocyte, filed as positive allosteric modulator
[23] = molecular target: T4, Gamma-aminobutyric acid receptor subunit alpha-1/alpha-6/beta-3/gamma-2 (Rattus norvegicus); assay: Positive allosteric modulation of rat recombinant GABAA alpha6beta3alpha1-gamma2beta3 receptor expressed in Xenopus laevis oocytes assessed as maximal efficacy at -80 mV holding potential at 100 nM in presence of GABA EC1 to 1.5 by two-electrode voltage-clamp assay; assay type: cell-based; details: Oocyte
[24] = molecular target: T4, Gamma-aminobutyric acid receptor subunit alpha-1/alpha-6/beta-3/gamma-2 (Rattus norvegicus); assay: Positive allosteric modulation of rat recombinant GABAA alpha6beta3alpha1-gamma2beta3 receptor expressed in Xenopus laevis oocytes assessed as maximal efficacy at -80 mV holding potential at 30 nM in presence of GABA EC1 to 1.5 by two-electrode voltage-clamp assay; assay type: cell-based; details: Oocyte
Oocyte = assay: Positive allosteric modulation of rat recombinant GABAA alpha1beta3alpha1 receptor expressed in Xenopus laevis oocytes assessed as activation of maximal current at -80 mV holding potential in presence of GABA EC1 to 1.5 by two-electrode voltage-clamp assay; assay type: cell-based; details: filed as positive allosteric modulator
[25] = filed as positive allosteric modulator

T2 sequence (P18508 whole entry): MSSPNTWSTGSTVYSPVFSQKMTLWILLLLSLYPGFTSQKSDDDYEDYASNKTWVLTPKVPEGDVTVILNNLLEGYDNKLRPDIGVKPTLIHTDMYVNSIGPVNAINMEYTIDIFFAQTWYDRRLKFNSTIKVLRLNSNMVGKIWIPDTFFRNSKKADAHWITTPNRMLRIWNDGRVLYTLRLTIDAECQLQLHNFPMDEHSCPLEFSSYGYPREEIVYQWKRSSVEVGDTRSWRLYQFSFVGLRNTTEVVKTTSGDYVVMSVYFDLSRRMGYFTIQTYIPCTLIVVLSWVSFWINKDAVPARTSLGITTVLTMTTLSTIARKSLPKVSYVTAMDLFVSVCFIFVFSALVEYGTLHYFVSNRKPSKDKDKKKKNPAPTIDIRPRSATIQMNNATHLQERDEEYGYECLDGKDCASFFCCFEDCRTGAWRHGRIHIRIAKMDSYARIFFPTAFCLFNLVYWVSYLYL
T2 sequence (P30191 whole entry): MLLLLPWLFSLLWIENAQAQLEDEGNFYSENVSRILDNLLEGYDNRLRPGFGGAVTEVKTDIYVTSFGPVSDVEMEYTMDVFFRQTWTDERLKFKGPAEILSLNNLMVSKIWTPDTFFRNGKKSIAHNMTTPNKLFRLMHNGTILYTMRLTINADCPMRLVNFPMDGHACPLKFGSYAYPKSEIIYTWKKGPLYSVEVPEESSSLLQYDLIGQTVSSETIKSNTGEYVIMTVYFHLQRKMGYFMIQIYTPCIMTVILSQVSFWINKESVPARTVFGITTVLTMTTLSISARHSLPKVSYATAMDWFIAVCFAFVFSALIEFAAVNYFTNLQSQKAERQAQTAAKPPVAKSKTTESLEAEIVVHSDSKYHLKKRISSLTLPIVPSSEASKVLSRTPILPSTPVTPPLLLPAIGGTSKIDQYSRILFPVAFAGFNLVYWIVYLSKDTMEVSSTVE
T2 sequence (P63079 whole entry): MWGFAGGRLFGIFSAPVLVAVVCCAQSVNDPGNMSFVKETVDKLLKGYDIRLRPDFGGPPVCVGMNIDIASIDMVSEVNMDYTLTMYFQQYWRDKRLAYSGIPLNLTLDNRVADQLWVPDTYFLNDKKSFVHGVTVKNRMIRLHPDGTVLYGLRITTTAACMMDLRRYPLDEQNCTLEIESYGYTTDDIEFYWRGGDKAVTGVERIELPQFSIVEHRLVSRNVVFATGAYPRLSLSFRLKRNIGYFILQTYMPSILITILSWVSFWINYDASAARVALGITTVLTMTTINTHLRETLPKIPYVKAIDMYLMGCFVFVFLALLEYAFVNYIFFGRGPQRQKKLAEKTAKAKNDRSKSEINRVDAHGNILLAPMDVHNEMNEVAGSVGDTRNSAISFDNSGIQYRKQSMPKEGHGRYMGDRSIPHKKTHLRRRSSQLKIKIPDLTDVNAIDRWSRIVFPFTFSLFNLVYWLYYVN

SMILES | %max [1] [%] | Efficacy [2] [%] | Efficacy [3] [%] | EC50 [4] [µM] | Efficacy [5] [%] | Efficacy [6] [%] | Efficacy [7, 25] [%] | Efficacy [8, 25] [%] | Efficacy [9] [%] | Efficacy [10] [%] | Efficacy [11] [%] | Efficacy [12] [%] | Efficacy [7] [%] | Efficacy [8] [%] | Efficacy [14] [%] | EC50 [15] [µM] | %max [16] [%] | Efficacy [18] [%] | EC50 [19] [µM] | %max [22] [%] | other results
COc1ccc(-n2nc3c4ccc(C)cc4[nH]cc-3c2=O)cc1 | 2050 | 149 | 25 | 13 | 1020 | 456 | 40 | 60 | 234 | 1310 | 100 | 31 | – | – | – | – | – | – | – | – | –
C#Cc1ccc2c3nn(-c4ccc(OC)cc4)c(=O)c-3c[nH]c2c1 | 946 | 98 | 9 | 5 | 581 | 325 | – | – | 163 | 732 | 70 | 12 | 27 | 39 | – | – | – | – | – | – | –
COc1ccc(-n2nc3c4ccc(C(F)(F)F)cc4[nH]cc-3c2=O)cc1 | – | 100 | 13 | – | 590 | 216 | 43 | 62 | 147 | 1370 | 83 | 23 | – | – | 851 | 100 | 2970 | 1570 | 0.013 | 49 | Efficacy [13]: 18%; Efficacy [17]: 9%; Efficacy [20]: 14%; Efficacy [21]: 10%; Efficacy [23]: 5%; Efficacy [24]: 1%
COc1ccc(-n2nc3c4ccccc4[nH]cc-3c2=O)cc1 | 1480 | 63 | – | 9 | 751 | 214 | – | – | 152 | 1360 | 57 | 1 | 8 | 19 | – | – | – | – | – | – | –
COc1ccc(-n2nc3c4ccc(F)cc4[nH]cc-3c2=O)cc1 | – | 118 | 6 | – | 300 | 235 | – | 46 | 156 | 385 | 77 | 16 | 28 | – | – | 32 | 353 | – | 0.028 | 96 | –
COc1ccc(-n2nc3c4ccc(OC)cc4[nH]cc-3c2=O)cc1 | – | 143 | 31 | – | 400 | 234 | 75 | 105 | 178 | 702 | 125 | – | – | – | 71 | 118 | 1630 | 446 | 0.008 | 113 | Efficacy [12, 25]: 59%
CCc1ccc2c3nn(-c4ccc(OC)cc4)c(=O)c-3c[nH]c2c1 | – | 74 | 3 | – | 621 | 216 | – | – | 127 | 1940 | 54 | 4 | 21 | 29 | 1040 | 299 | 4980 | 1510 | 0.023 | 57 | Efficacy [21]: 7%; Efficacy [23]: 5%; Efficacy [24]: 5%
COc1ccc(-n2nc3c4ccc(Cl)cc4[nH]cc-3c2=O)cc1 | – | 94 | 6 | – | 688 | 387 | – | 40 | 180 | 703 | 65 | 13 | 22 | – | – | 17 | 796 | – | 0.01 | 56 | –
CN1C(=O)CN=C(c2ccccc2)c2cc(Cl)ccc21 | – | – | – | – | – | – | – | – | – | – | – | – | – | – | – | – | – | – | – | – | Activity (Oocyte): 30 nanoampere
